Test results published in the supplement of paper PMC10307832.

Columns and labels:
Experiment in all cases: relative viability (nuclei count vs DMSO), 5 days (fraction); higher = more cells survive
[1] = compound: CC[C@H](C)N1C=C(C2=C(C=C(C=C21)C3=CN=C(C=C3)N4CCNCC4)C(=O)NCC5=C(C=C(NC5=O)C)C)C [GSK126] + COc1cc2c(Oc3ccc(NC(=O)C4(C(=O)Nc5ccc(F)cc5)CC4)cc3F)ccnc2cc1OCCCN1CCOCC1 [Foretinib] (partner 0.25 µM)
Summary of the method: (§1)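 After 5 days of treatment, lung cancer cells in 1536-well plates were fixed and stained in a single step (final 0.05% Triton X-100, 1% formaldehyde, 1 ug/ml Hoechst) and their nuclei counted on 4× images. Treatment had been applied by pin tool the day after seeding as one drug alone or as a fixed anchor-drug dose with five library-drug doses (not always all listed) in √10 steps. Relative viability is the nuclei count of treated wells divided by that of vehicle wells, and values are medians of duplicate plates.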

[2] = compound: NS(=O)(=O)OC[C@@H]1C[C@@H](n2ccc3c(N[C@H]4CCc5ccccc54)ncnc32)C[C@@H]1O [MLN4924] + COc1cccc2cc(-c3nc([C@H]4CC[C@H](C(=O)O)CC4)n4ncnc(N)c34)[nH]c12 [OSI-027] (partner 0.5 µM)
Summary of the method: as §1

[3] = compound: C1CC(C1)(C(=O)O)C(=O)O.[NH2-].[NH2-].[Pt+2] [Carboplatin] + Nc1nc2[nH]cc(CCc3ccc(C(=O)N[C@@H](CCC(=O)O)C(=O)O)cc3)c2c(=O)[nH]1 [Pemetrexed] (partner 0.2 µM)
Summary of the method: as §1

[4] = compound: C1CC(C1)(C(=O)O)C(=O)O.[NH2-].[NH2-].[Pt+2] [Carboplatin] + CCNC(=O)c1noc(-c2cc(C(C)C)c(O)cc2O)c1-c1ccc(CN2CCOCC2)cc1 [Luminespib] (partner 0.01 µM)
Summary of the method: as §1

| Cell Line | relative viability ([1]; first compound 0.08 µM) | relative viability ([1]; first compound 0.253 µM) | relative viability ([1]; first compound 0.8 µM) | relative viability ([1]; first compound 2.53 µM) | relative viability ([1]; first compound 8 µM) | relative viability ([2]; first compound 0.04 µM) | relative viability ([2]; first compound 0.1265 µM) | relative viability ([2]; first compound 0.4 µM) | relative viability ([2]; first compound 1.265 µM) | relative viability ([2]; first compound 4 µM) | relative viability ([3]; first compound 0.08 µM) | relative viability ([3]; first compound 0.253 µM) | relative viability ([3]; first compound 0.8 µM) | relative viability ([3]; first compound 2.53 µM) | relative viability ([3]; first compound 8 µM) | relative viability ([4]; first compound 0.08 µM) | relative viability ([4]; first compound 0.253 µM) | relative viability ([4]; first compound 0.8 µM) | relative viability ([4]; first compound 2.53 µM) | relative viability ([4]; first compound 8 µM) |
| --- | --- | --- | --- | --- | --- | --- | --- | --- | --- | --- | --- | --- | --- | --- | --- | --- | --- | --- | --- | --- |
| NCI-H2023 | 1.02 | 0.885 | 0.961 | 1.05 | 1.15 | 0.383 | 0.361 | 0.163 | 0.0645 | 0.0536 | 0.248 | 0.209 | 0.196 | 0.15 | 0.152 | 0.774 | 0.715 | 0.668 | 0.281 | 0.172 |
| ABC-1 | 1.31 | 1.15 | 0.955 | 1.14 | 0.959 | 0.7 | 0.511 | 0.323 | 0.196 | 0.248 |  |  |  |  |  | 1.17 | 0.704 | 0.451 | 0.435 | 0.273 |
| LC-2-ad | 1.08 | 0.971 | 0.915 | 0.995 | 1.07 | 0.952 | 0.727 | 0.439 | 0.224 | 0.262 | 0.278 | 0.28 | 0.294 | 0.308 | 0.272 | 1.02 | 1.01 | 0.993 | 0.911 | 0.651 |
| NCI-H460 | 1.04 | 0.998 | 0.977 | 0.997 | 1.06 | 0.739 | 0.781 | 0.893 | 0.0922 | 0.0324 | 0.0702 | 0.0594 | 0.0708 | 0.068 | 0.0641 | 0.0398 | 0.0303 | 0.0396 | 0.0341 | 0.0233 |
| NCI-H1915 | 1.22 | 1.16 | 1.09 | 1.08 | 1.2 | 0.567 | 0.544 | 0.452 | 0.213 | 0.205 | 0.487 | 0.531 | 0.505 | 0.47 | 0.416 | 0.867 | 0.876 | 0.631 | 0.613 | 0.328 |
| NCI-H1299 | 1.14 | 1.13 | 1.05 | 1.07 | 1.11 |  |  |  |  |  |  |  |  |  |  |  |  |  |  |  |
| HOP-62 | 1.11 | 1.08 | 1.01 | 1.21 | 1.04 | 0.73 | 0.565 | 0.337 | 0.0849 | 0.132 | 0.416 | 0.328 | 0.332 | 0.328 | 0.308 | 0.957 | 0.876 | 0.819 | 0.799 | 0.719 |
| EPLC-272H | 0.809 | 0.789 | 0.736 | 0.742 | 0.754 | 0.291 | 0.265 | 0.0696 | 0.13 | 0.136 | 0.368 | 0.309 | 0.359 | 0.301 | 0.326 | 0.308 | 0.297 | 0.266 | 0.387 | 0.226 |
| NCI-H647 | 1.21 | 1.23 | 0.971 | 1.45 | 1.26 | 0.598 | 0.472 | 0.475 | 0.0477 | 0.0384 | 0.176 | 0.18 | 0.172 | 0.203 | 0.143 | 0.169 | 0.239 | 0.154 | 0.185 | 0.13 |
